Consider two compounds from patent publication US12103952B2, “Methods for expressing proteins in axons” (Cornell University, priority 2010, dated 2024).

The subject of the experiment is DRG axons. The experiment can be described thus: IRES-driven myr-dEGFP Sindbis reporter in compartmented cultures with translation inhibitors. It counts as cell-based, rat. The settings on record: added for 48 hrs to the axonal compartment. The source says: FIGS. 1A-O are data showing that the compartmentalization of DRGs enables axon-specific manipulations and quantitative measurement using fluorescent probes. (A) Immunofluorescence analysis of 3 DIV DRG cultures+/−5-FdU. […] Scale bar, 50 μm. […] Scale bar, 50 μm. (C) Immunofluorescence analysis of compartmented cultures (montage micrographs). Retrogradely labeled (WGA-Alexa555, red) DRG axons fasciculate and grow under the 1 mm divider into the axon compartment. Axons defasciculate as they enter the axon compartment. Cell bodies (DAPI, blue) are restricted to the cell body compartment. Only WGA-Alexa555 labeled cell bodies are included in data sets, as they comprise the population of neurons extending axons across the divider. (D) Dissociated DRG neurons (5 DIV) in compartmented cultures were treated with NGF in either or both compartments. […] Numbers on bars represent n cells per condition. (E, F) DRG axons in compartmented cultures were infected with a Sindbis virus encoding myr-dEGFP under the control of an IRES by applying the virus to both cell body and axonal compartments. […] All compartments were maintained in identical NGF-containing media throughout the course of the experiment. […] Incomplete abolishment of FISH signals, relative to siRNA-treated axons, reflects residual alternatively-spliced CREBβ transcripts in these hypomorphic animals (Blendy et al., EMBO Journal 15, 1098-1106 (1996)). Additionally, axonal mRNAs are trafficked as mRNA-ribosome complexes, and impaired CREBβ mRNA-ribosome interactions due to the poor Kozak site (Blendy et al., EMBO Journal 15, 1098-1106 (1996)) in this transcript may lead to inefficient trafficking. Scale bar, 10 μm. (H) Quantification of data in (G). *p<0.0001. Numbers on bars represent n axons per condition. (I) Similar to the experiment in FIG. 4A, except equivalent numbers of cell bodies and axon terminals were used for Western blotting. DRG explants were cultured in Boyden chambers, and the upper compartment was incubated in 0 ng/ml NGF. The lower compartment was incubated in either 0 ng/ml NGF or 100 ng/ml NGF for 3 hours. Axon lysates (˜10^4 cells) were prepared from the underside of the membrane and analysed by Western blot. As in FIG. 4A, only CREB was detected in axons, and CREB localization in […] axons was dependent on NGF in the culture media. (J) DRG cultures were transfected with CREB siRNA and CREB levels were detected using a CREB antibody. […] Scale bar, 20 μm. (K) Quantification of data in (J). *p<0.001. Numbers on bars represent n axons per condition. (L) E15 DRG neuronal lysate (10 μg) was subjected to immunoblotting with the CST-9192 CREB antibody. (M) CREB was detected by immunofluorescence using CREB antibody sc-186 (see I, FIG. 4A, and Table S4). Scale bar 10 μm. […] (0) Quantification of data in (M). *p<0.0001. […]

On to `C[C@@H]1C[C@@H]([C@H](O)CC2CC(=O)NC(=O)C2)C(=O)[C@@H](C)C1` [cycloheximide], for which the “myr-EGFP fluorescence in the axonal compartment” value is “loss of myr-EGFP fluorescence” and the “myr-EGFP levels in the cell body compartment” value is on record as “no significant effect”.
The matching figures for `COc1ccc(C[C@H]2NC[C@H](O)[C@H]2OC(C)=O)cc1` [anisomycin]: “loss of myr-EGFP fluorescence” and “no significant effect”.
